The AUC(0-inf) is the area under the concentration-time curve extrapolated to infinity. The term Cmax denotes the highest concentration seen after dosing. In general, Tmax refers to the time at which the peak concentration occurs. The AUC(0-t) is the area under the concentration-time curve up to a stated or last time point. The IC50 is the concentration needed to halve the response being measured. By Ki is commonly meant the dissociation constant of the complex between target and ligand, obtained from inhibition or displacement. As usually defined, the half-life is the time in which the quantity being followed falls by half. A lower half-life goes with fast loss. As a reminder, the Vd/F is the apparent distribution volume after extravascular dosing.

This is an account of results in paper PMC5267515, “In Vitro and Clinical Evaluations of the Drug-Drug Interaction Potential of a Metabotropic Glutamate 2/3 Receptor Agonist Prodrug with Intestinal Peptide Transporter 1” (Drug Metabolism and Disposition, 2017).

“Also recorded” adds a separate entry of the source. Where two headings read alike, the source gives them in different places.

The nature of one series: clinical. To be noted: human, in vivo.
The conditions of series [1]: human, in vivo.
Series [2] can be described thus: Clinical drug interaction study (H8Y-MC-HBCF), plasma and urine pharmacokinetics in healthy subjects. To be noted: for Tmax: median (min–max).
Series [3] addresses T1, PEPT1 (Homo sapiens, UniProt P46059).
T1 sequence (P46059 1-708): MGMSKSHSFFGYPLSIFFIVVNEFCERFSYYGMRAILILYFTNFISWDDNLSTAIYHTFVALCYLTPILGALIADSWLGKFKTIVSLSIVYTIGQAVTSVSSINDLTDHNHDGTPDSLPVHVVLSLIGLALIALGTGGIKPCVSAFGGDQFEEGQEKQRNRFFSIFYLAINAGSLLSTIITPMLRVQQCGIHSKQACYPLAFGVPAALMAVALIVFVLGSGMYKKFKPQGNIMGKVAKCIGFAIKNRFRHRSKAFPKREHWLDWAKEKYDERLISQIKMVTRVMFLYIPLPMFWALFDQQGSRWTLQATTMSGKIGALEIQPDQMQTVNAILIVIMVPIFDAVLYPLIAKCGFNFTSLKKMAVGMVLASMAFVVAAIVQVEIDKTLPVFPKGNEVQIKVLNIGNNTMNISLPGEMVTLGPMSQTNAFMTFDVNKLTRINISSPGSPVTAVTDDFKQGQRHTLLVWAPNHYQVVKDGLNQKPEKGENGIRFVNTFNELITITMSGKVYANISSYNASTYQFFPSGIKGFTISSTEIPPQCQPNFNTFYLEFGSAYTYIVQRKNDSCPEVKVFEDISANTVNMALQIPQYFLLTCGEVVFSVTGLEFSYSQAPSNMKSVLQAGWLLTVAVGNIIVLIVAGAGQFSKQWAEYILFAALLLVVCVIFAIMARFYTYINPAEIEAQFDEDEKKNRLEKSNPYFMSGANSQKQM
Briefly: Inhibition of PEPT1-mediated [14C]LY2140023 uptake in transfected HeLa cells. To be noted: 10 μM [14C]LY2140023.

Series [4] has as its target PEPT1. Details: method as in Ganapathy et al. (1998). Particulars: ref Ganapathy et al. (1998); read-out: Ki value (printed in column IC50 against Gly-Sar); cited from earlier work.
Series [5] in a line: Clinical study safety (adverse events) in healthy subjects. It is filed as in vivo, human.
The target of series [6] is T1, PEPT1. Description: Inhibition of PEPT1-mediated [14C]Gly-Sar uptake in transfected HeLa cells. It is filed as in vitro ADME. The arrangement: expressed in transfected cells; host or cells: HeLa cells (ATCC), transiently transfected with Fugene 6, pcDNA3.1 vector. To be noted: 25 μM [14C]Gly-Sar; LY2140023 5 to 1000 μM; 3 minutes; read-out: IC50 against Gly-Sar, mean of two separate experiments. The procedure:
An inhibition assay was conducted using 25 μM [^14C]Gly-Sar (0.278 μCi/ml) as a probe substrate to assess if the uptake of [^14C]Gly-Sar was inhibited by prodrug (5 to 1000 μM). The cells were incubated for 3 minutes in uptake buffer containing 25 μM [^14C]Gly-Sar and different concentrations of LY2140023 at room temperature. The uptake was corrected for background determined by parallel experiment in cells transfected with pcDNA3.1 empty vector. Cell lysing and protein quantification were performed as described above.

The subject of the next series is MDCK-MDR1 cells. Details: method as in data on file, Eli Lilly and Company. Particulars: ref data on file, Eli Lilly and Company; cited from earlier work.
For series [7], the target named is T1, PEPT1. Description: Potential for clinical DDI: estimated GI concentration (I2) versus in vitro IC50. The arrangement: expressed in transfected cells; host or cells: HeLa cells (ATCC), transiently transfected with Fugene 6, pcDNA3.1 vector. To be noted: dose divided by 250 ml (glass of water). How it is done:
These concentrations (I2) were obtained by dividing the recommended clinical dose by a volume of 250 ml (volume of glass of water) (Table 3).
Subsequently, to normalize the inhibitory potential to the clinical dose, the in vitro IC50 values were […] (the volume of a glass of water).

For a further series, the system named is Pept1 knockout mice. The arrangement: method as in data on file, Eli Lilly and Company. Particulars: ref data on file, Eli Lilly and Company; cited from earlier work.
In series [8] the target is T1, PEPT1. Briefly: Proton- and time-dependent transport of prodrug and active moiety in PEPT1 transfected HeLa cells. Format: in vitro ADME. Details: expressed in transfected cells; host or cells: HeLa cells (ATCC), transiently transfected with Fugene 6, pcDNA3.1 vector. Particulars: 30 μM, pH 6.0 or 7.5, PEPT1 vs empty vector transfected HeLa cells. The procedure:
The PEPT1 mediated [^14C]LY2140023 (30 μM) and [^14C]LY404039 (30 μM) uptake was measured in cells 24 hours post transfection. The time-dependent transport of LY2140023 and LY404039 was conducted using buffers prepared at either pH 6.0 or 7.5 as described above. The cells transfected with empty pcDNA3.1 vector were used to measure the passive diffusion of LY2140023 and LY404039. The cells were incubated for 1, 2.5, 5, 7.5, 10, and 15 minutes at room temperature and were washed, lysed, and contents quantified as described above.

The mark [9] stands for this setting: LY2140023 80 mg + valacyclovir 1000 mg coadministered, geometric mean (CV%).
[10] abbreviates: human, plasma, oral, Cmax LS Geometric Mean, LY2140023 + Valacyclovir (Test).
The mark [11] stands for this setting: human, plasma, oral, Cmax, LY2140023 80 mg + valacyclovir 1000 mg coadministered, geometric mean (CV%).
[12] abbreviates: human, plasma, oral, LY2140023 80 mg + valacyclovir 1000 mg coadministered.

Regarding `Nc1nc2c(ncn2COCCO)c(=O)[nH]1` [Acyclovir], the AUC(0-inf) in the series “clinical” (AUC(0-∞)) and in the series “clinical” (AUC(0-∞) LS Geometric Mean) was 17500 ng·h/mL throughout. The Cmax in “clinical” (Cmax) and in the series “clinical” (Cmax LS Geometric Mean) was 4400 ng/mL throughout. Further, the Tmax in “clinical” (tmax) was 2.5 h. The fe in [1] is listed as 0.460 (32.0).

As to `CC(C)[C@H](N)C(=O)OCCOCn1cnc2c(=O)[nH]c(N)nc21` [Valacyclovir], in series [2] (setting [9]), the “fe (fraction of the dose excreted in urine)” value is given as 0.00776 (25.4). For the same compound, the AUC(0-t) in series [2] (human, plasma, oral, 1000 mg, AUC(0-3) LS Geometric Mean, Valacyclovir Alone (Reference)) was 309 ng·h/mL; in [2] (human, plasma, oral, 1000 mg, AUC(0-3), single 1000-mg dose of valacyclovir alone, geometric mean (CV%), n = 22), 311 ng·h/mL; in series [2] (human, plasma, oral, AUC(0-3) LS Geometric Mean, Valacyclovir + LY2140023 (Test)), 278 ng·h/mL; in series [2] (human, plasma, oral, AUC(0-3), LY2140023 80 mg + valacyclovir 1000 mg coadministered, geometric mean (CV%)), 270 ng·h/mL. In addition, the Cmax in [2] (human, plasma, oral, 1000 mg, Cmax LS Geometric Mean, Valacyclovir Alone (Reference)) turned out to be 245 ng/mL; in series [2] (human, plasma, oral, 1000 mg, Cmax, single 1000-mg dose of valacyclovir alone, geometric mean (CV%)), 245 ng/mL; in series [2] (setting [10]), 258 ng/mL; in series [2] (setting [11]), 255 ng/mL. The Tmax in series [2] (human, plasma, oral, 1000 mg, single 1000-mg dose of valacyclovir alone) came to 2 h; in series [2] (setting [12]) it was 2 h. In series [2] (human, urine and plasma, oral, 1000 mg), the CL renal was 262 mL/min. Further, the fe in series [2] (single 1000-mg dose of valacyclovir alone, geometric mean (CV%)) is listed as 0.00703 (64.7). The IC50 on PEPT1 [3] (IC50 against LY2140023, first of two separate experiments) was found to be 410 ± 50 µM; against PEPT1 [3] (IC50 against LY2140023, second of two separate experiments), 500 ± 110 µM; against PEPT1 [3] (Mean IC50 against LY2140023, mean of two separate experiments), 460 µM. Besides, the Ki on PEPT1 [4] was 740 µM. Moreover, the adverse events entry in [5] (after 1000 mg of valacyclovir alone) was “mild AE of urticaria; also recorded: one severe AE of headache”.

As to `CSCC[C@H](N)C(=O)N[C@@]1(C(=O)O)CS(=O)(=O)[C@H]2[C@H](C(=O)O)[C@H]21` [LY2140023, Pomaglumetad methionil], at PEPT1 [6], the IC50 stood at 18 µM. Also, the passive permeability entry in the series with MDCK-MDR1 cells was “approximately 1 × 10^−6 cm/s”. Also, the “Estimated Intestinal Concentration” value on PEPT1 [7] is 0.873 mM. For the same compound, the CL/F in series [2] (setting [9]) was 65.9 (31) L/hour; in [2] (single 80-mg dose of LY2140023 alone, geometric mean (CV%)), 60.2 (27) L/hour. In series [2] (human, plasma, oral, 80 mg), the half-life is 1.92 h. In addition, the AUC(0-inf) in series [2] (human, plasma, oral, 80 mg, AUC(0-∞) LS Geometric Mean, LY2140023 Alone (Reference)) was determined as 1350 ng·h/mL; in series [2] (human, plasma, oral, 80 mg, AUC(0-∞), single 80-mg dose of LY2140023 alone, geometric mean (CV%)), 1330 ng·h/mL; in [2] (human, plasma, oral, AUC(0-∞) LS Geometric Mean, LY2140023 + Valacyclovir (Test)) it was 1220 ng·h/mL; in series [2] (human, plasma, oral, AUC(0-∞), LY2140023 80 mg + valacyclovir 1000 mg coadministered, geometric mean (CV%)), 1210 ng·h/mL. For the same compound, the Cmax in series [2] (human, plasma, oral, 80 mg, Cmax LS Geometric Mean, LY2140023 Alone (Reference)) stood at 310 ng/mL; in [2] (human, plasma, oral, 80 mg, Cmax, single 80-mg dose of LY2140023 alone, geometric mean (CV%)), 307 ng/mL; in series [2] (setting [10]), 275 ng/mL; in series [2] (setting [11]) it was 272 ng/mL. The Tmax in series [2] (human, plasma, oral, 80 mg, single 80-mg dose of LY2140023 alone) is 3 h; in [2] (setting [12]), 3 h. The “AUC0–∞ in Pept1 knockout mice relative to wildtype mice” value in the series on Pept1 knockout mice was 10%. Also, the “Cmax in Pept1 knockout mice relative to wildtype mice” value in the series with Pept1 knockout mice was 10%. This compound also showed a Vd/F in “clinical” (Vz/F) of 166 L. Further, the “most common AEs” value in series [5] (after prodrug alone (80 mg)) was “nausea, dizziness, somnolence, and headache”. Also, the PEPT1 substrate status entry at PEPT1 [8] is “a PEPT1 substrate; also recorded: PEPT1-mediated, proton-dependent process”; at PEPT1 [8] (listed as LY2140023 monohydrate) it was “is a substrate of PEPT1”.
